Values quoted from earlier work in patent US7887828B2, “Dual action organic formulation to control two stages of insect pests” (ISCA Technologies, Inc., priority 2006, dated 2011).

Assays:
gypsy moth larvae [1] = test system: gypsy moth larvae
gypsy moth larvae [2] = conditions: 16 hours after a 2 minute crawling exposure to glass coated with a 4 mg/litre solution
gypsy moth larvae [3] = conditions: 3-day exposure; 13-day evaluation; 2nd instar larvae; treated red oak leaf disks
[4] = test system: mammalian and avian species; conditions: as indicated by DAS

spinosad
larval populations reduced (gypsy moth larvae [1]; 3±50 mg/litre applied to run-off, ornamental style applications): 95±100% | population reduction (gypsy moth larvae [1]; application rate of 0.75 mg/litre): large population reductions | concentrations that effectively controlled 2nd instar larvae (gypsy moth larvae [1]; applied to foliage to run-off, laboratory potted red oak seedlings and field 4 m-tall birch trees): 3 to 50 mg/L | treated larvae paralyzed (gypsy moth larvae [2]): 50% | LC50 (gypsy moth larvae [3]): 0.0015 mg AI/cm2 | toxicity to mammalian and avian species [4]: little or no toxicity
